From patent US9974782B2, “Phosphodiesterase inhibitors and uses thereof” (THE TRUSTEES OF COLUMBIA UNIVERSITY IN THE CITY OF NEW YORK, priority 2008, dated 2018)
Entries after “also recorded” stand apart in the source; their conditions may differ. Where two headings read alike, the source gives them in different places.

Legend:
[1] = target: PDE5 (Homo sapiens, UniProt O76074); settings: cited from earlier work
[2] = test system: PDE1; settings: cited from earlier work
[3] = test system: PDE6; settings: cited from earlier work
[4] = target: PDE2 (Homo sapiens, UniProt O00408); settings: cited from earlier work
[5] = test system: PDE3; settings: cited from earlier work
[6] = test system: PDE4; settings: cited from earlier work
[7] = test system: isolated rabbit corpus cavernosum; settings: read-out: EC50, relaxant effect; cited from earlier work
[8] = rat, in vivo; cited from earlier work
[9] = test system: human Aβ40 and Aβ42 levels; settings: rolipram, earlier study; cited from earlier work
[10] = test system: CA1 region of hippocampal slices from APP/PS1 and WT mice; test: Electrophysiological analysis (BST, LTP) of hippocampal slices perfused with inhibitor; type: cell-based, mouse
[11] = test system: APP/PS1 mice; test: Contextual and cued fear conditioning; type: in vivo, mouse; settings: for effect on contextual fear memory in words: APP/PS1 (transgenic) mice
Method: Given that sildenafil reversed LTP deficits in 3-month-old APP/PS1, it was then tested whether the inhibitor reversed the cognitive defects in these animals. As reported above sildenafil offers the advantage of crossing the BBB and therefore it can be easily utilized in behavioural experiments. Three-month-old mice were divided into 4 groups: APP/PS1 with sildenafil, APP/PS1 with vehicle, WT with sildenafil and WT with vehicle. Sildenafil and vehicle control solutions were administered i.p. at a concentration of 3 mg/kg. This concentration was chosen based on previous studies showing that these amounts of sildenafil raise hippocampal cGMP levels and improve memory in aged rats^A6 and mice^A7 independent of vascular effects^A6. The effects of acute administration of sildenafil was first examined on fear-conditioning learning, a type of learning that is impaired in several AD mouse models^A14 and depends on hippocampus and amygdala. The hippocampus is indispensable for contextual fear conditioning^A15, a form of associative learning in which mice must associate a neutral stimulus with an aversive one. Mice were trained to associate neutral stimuli with an aversive one. They were placed in a new context (fear conditioning box), exposed to a white noise cue (CS) paired with a mild foot shock (US), and injected with sildenafil immediately after the training. Fear learning was assessed twenty-four hours later by measuring freezing behaviour—the absence of all movement except for that necessitated by breathing—in response to representation of the context or of the auditory cue within a completely different context. No difference was found in the freezing behaviour among the four groups of mice before the training phase (FIG. 2A). Twenty-four hours later, a decrease in the freezing behaviour of vehicle-treated APP/PS1 mice compared with that of vehicle-treated WT littermates in the analysis of the contextual learning was observed (FIG. 2A). […] Fear conditioning, a hippocampus-independent task A^15, was next tested and no difference in freezing among the 4 groups was found, as APP/PS1 mice are known to have a selective hippocampus-dependent impairment in associative learning^A14.
Sildenafil was tested to determine whether a brief course of treatment can provide long term benefits. The PDE5 inhibitor was examined to see if it maintains its protective effect against synaptic dysfunction and memory loss. In these experiments, both APP/PS1 and WT mice of 3 months of age were injected intraperitoneally with 3 mg/kg/day sildenafil for 3 weeks, then the treatment was stopped for 9-12 weeks prior to testing. The mice were next subjected to training for contextual learning. […] There were no differences between the 4 groups in the cued conditioning test.
Three-month-old APP/PS1 and WT mice were separated into 4 groups: APP/PS1 mice treated with vehicle, APP/PS1 mice treated with PDE inhibitor, WT mice treated with vehicle, and WT mice treated with PDE inhibitor. […] In the remaining experiments, sildenafil was injected via i.p. The drug was administered either acutely or for 1 course of 3 week treatment. For assessment of the short-term effects of sildenafil, the drug was given at a concentration of 3 mg/kg immediately after the training. This dose yields concentrations of ˜2.5 μM cGMP in the hippocampus^A53. For assessment of long-term effects, sildenafil was given daily by i.p. injection at a concentration of 3 mg/kg for 3 weeks and then treatment was stopped for 9-12 weeks prior to behavioral testing. Contextual and cued fear conditioning was performed for 3 days. Radial-arm water-maze (RAWM) was performed for 3 weeks. Then, the animals were sacrificed for electrophysiological recordings. To decide the time of administration of sildenafil in the acute experiments, a series of studies was performed in which the inhibitor was injected i.p. at 5 min before the electric shock or at 5 min before the first acquisition trial with the radial arm water maze. […]

[12] = test system: APP/PS1 mice; test: Radial-arm water maze (spatial working memory); type: in vivo, mouse; settings: APP/PS1 (transgenic) mice
Description: Next, the effect of treatment with sildenafil was examined on spatial working memory, a type of short-term memory that can be studied with the radial-arm water maze test. […] Mice were required to learn and memorize the location of a hidden platform in one of the arms of a maze with respect to spatial cues. […] However, daily injections of sildenafil for 3 weeks immediately after the 4th acquisition trial ameliorated the behavioural performance of APP/PS1 mice (FIG. 2B).
The effects of one course of 3-week treatment with sildenafil on spatial working memory were next tested using the radial-arm water-maze task. There was a difference between the number of errors made by vehicle-treated APP/PS1 and WT mice (FIG. 3B)^A12. Administration of sildenafil for 3 weeks, 9-12 weeks prior to the testing, reduced the gap between the two groups without affecting performance of the WT animals (FIG. 3B).
Three-month-old APP/PS1 and WT mice were separated into 4 groups: APP/PS1 mice treated with vehicle, APP/PS1 mice treated with PDE inhibitor, WT mice treated with vehicle, and WT mice treated with PDE inhibitor. […] In the remaining experiments, sildenafil was injected via i.p. The drug was administered either acutely or for 1 course of 3 week treatment. For assessment of the short-term effects of sildenafil, the drug was given at a concentration of 3 mg/kg immediately after the training. This dose yields concentrations of ˜2.5 μM cGMP in the hippocampus^A53. For assessment of long-term effects, sildenafil was given daily by i.p. injection at a concentration of 3 mg/kg for 3 weeks and then treatment was stopped for 9-12 weeks prior to behavioral testing. Contextual and cued fear conditioning was performed for 3 days. Radial-arm water-maze (RAWM) was performed for 3 weeks. Then, the animals were sacrificed for electrophysiological recordings. To decide the time of administration of sildenafil in the acute experiments, a series of studies was performed in which the inhibitor was injected i.p. at 5 min before the electric shock or at 5 min before the first acquisition trial with the radial arm water maze. […] Thus, all the behavioral experiments on the acute effects of sildenafil reported in the result section were performed with injection after the training.
This is a type of short-term memory that can be studied with the RAWM test^12. Briefly, the RAWM consisted of a white tank (120 cm diameter) filled with water (24-25° C.) and made opaque by the addition of non-toxic white paint. Within the tank walls were positioned so as to produce six arms, radiating from a central area. Spatial cues were presented on the walls of the testing room. At the end of one of the arms was positioned a clear 10 cm submerged (1.5 cm) platform that remained in the same location for every trial in one day, but was moved about randomly from day to day. On each trial the mouse started the task from a different randomly chosen arm. […] Each trial lasted 1 min and errors were counted each time the mouse entered the wrong arm or needed more than 20 sec to reach the platform. After each error the mouse was pulled back to the start arm for that trial. After 4 consecutive acquisition trials, the mouse was placed in its home cage for 30 min, then returned to the maze and administered a 5th retention trial. Testing was considered completed as the WT mice made the same number of errors at the 4th and 5th trial. The scores for each mouse on the last three days of testing were averaged and used for statistical analysis.

[13] = in vivo, cited from earlier work
[14] = WT slices, 120 min after tetanus, sildenafil 50 nM, tadalafil 50 nM, IC354 1 μM
[15] = WT slices, sildenafil or tadalafil 50 nM
[16] = slices of 3-month-old APP/PS1 mice, 120 min after tetanus, 10 min perfusion (sildenafil 50 nM, tadalafil 50 nM, IC354 1 μM)
[17] = 3 month-old WT, sildenafil 3 mg/Kg or tadalafil 1 mg/Kg i.p.

Sequence of PDE2 (O00408 whole entry): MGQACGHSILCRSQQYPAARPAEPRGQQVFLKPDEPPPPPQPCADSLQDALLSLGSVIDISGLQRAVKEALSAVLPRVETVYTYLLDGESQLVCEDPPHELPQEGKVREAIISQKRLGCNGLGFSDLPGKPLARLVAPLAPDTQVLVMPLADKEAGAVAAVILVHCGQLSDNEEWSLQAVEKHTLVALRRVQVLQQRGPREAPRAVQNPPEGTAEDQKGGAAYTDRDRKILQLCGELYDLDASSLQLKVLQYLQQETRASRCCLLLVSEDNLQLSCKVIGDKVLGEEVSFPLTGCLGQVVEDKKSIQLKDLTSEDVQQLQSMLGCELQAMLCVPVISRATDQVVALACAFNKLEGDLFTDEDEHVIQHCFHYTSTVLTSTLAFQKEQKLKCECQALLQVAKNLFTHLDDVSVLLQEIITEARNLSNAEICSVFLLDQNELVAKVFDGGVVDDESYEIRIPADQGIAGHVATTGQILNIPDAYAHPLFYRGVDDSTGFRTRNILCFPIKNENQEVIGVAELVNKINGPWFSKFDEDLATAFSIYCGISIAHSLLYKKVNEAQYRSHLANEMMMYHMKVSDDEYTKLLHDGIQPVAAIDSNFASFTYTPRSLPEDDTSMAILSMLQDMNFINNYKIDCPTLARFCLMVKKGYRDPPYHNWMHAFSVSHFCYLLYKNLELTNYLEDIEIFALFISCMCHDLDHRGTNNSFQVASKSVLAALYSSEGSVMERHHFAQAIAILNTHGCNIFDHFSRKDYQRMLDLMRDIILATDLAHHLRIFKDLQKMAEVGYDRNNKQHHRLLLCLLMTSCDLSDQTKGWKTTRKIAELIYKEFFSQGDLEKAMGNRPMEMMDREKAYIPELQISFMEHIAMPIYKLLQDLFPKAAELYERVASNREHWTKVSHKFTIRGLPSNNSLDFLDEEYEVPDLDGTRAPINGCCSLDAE

Compound: COC(=O)c1c(-c2cc(OC)c(OC)c(OC)c2)c2ccc(OCc3ccccn3)cc2c(=O)n1-c1ccc(N)cc1.O=S(=O)(O)O [T1032]
- IC50 ([1]; read-out: IC50 against PDE5): < 1 nM
- selectivity ratio for PDE1 (PDE1/PDE5) [2]: 1300
- selectivity ratio for PDE6 (PDE6/PDE5) [3]: 28
- PDE2/PDE5 [4]: > 10 000
- PDE3/PDE5 [5]: > 10 000
- PDE4/PDE5 [6]: 4700
- EC50 [7]: 7.9 nM

Compound: CCOC(=O)c1cc2c(cn1)[nH]c1ccccc12 [beta-CCE, Ethyl beta-carboline-3-carboxylate]
- PDE5 inhibition in words [1]: weak, non-selective PDE5 inhibitor

Compound: Cc1cc(-c2ccccc2)nnc1NCCN1CCOCC1 [minaprine]
- brain/blood ratio [8]: > 2

Compound: COc1ccc(C2CNC(=O)C2)cc1OC1CCCC1 (stereo not drawn) [rolipram]
- effect on Aβ in brains of APP/PS1 mice in words [9]: did not affect Aβ concentration; also recorded: did not affect Aβ load

Compound: CN1CC(=O)N2C(Cc3c([nH]c4ccccc34)C2c2ccc3c(c2)OCO3)C1=O (stereo not drawn) [tadalafil, 6-benzo[1,3]dioxol-5-yl-2-methyl-2,3,6,7,12,12a-hexahydro-pyrazino[1′,2′:1,6]pyrido[3,4-b]indole-1,4-dione]
- LTP, fEPSP slope as % of baseline [10, 14]: 232.45±21.92%
- level of LTP as % of vehicle-treated WT slices [10, 14]: ~106%
- basal synaptic responses without tetanus as % of vehicle-treated WT slices [10, 15]: ~98%
- basal synaptic responses without tetanus, fEPSP % of baseline [10, 15]: 103.65±1.63%
- effect on LTP impairment in words ([10]; slices from APP/PS1 (transgenic) mice, 10 min prior to tetanus): reverses LTP impairment
- LTP, fEPSP slope as % of baseline [10, 16]: 209.49±13.89%
- level of LTP as % of vehicle-treated WT littermates [10, 16]: ~96%
- contextual freezing time ([11]; 3 month-old APP/PS1, sildenafil 3 mg/Kg or tadalafil 1 mg/Kg i.p., 24 hrs after training): 18.76±3.89%
- contextual freezing time as % of vehicle-treated APP/PS1 mice ([11]; 3 month-old APP/PS1, tadalafil 1 mg/Kg i.p.): ~122%
- contextual freezing as % of vehicle-treated WT mice [11, 17]: ~85%
- contextual freezing time [11, 17]: 28.29±3.30%
- effect on contextual fear memory in words [11]: does not modify contextual fear conditioning
- effect on contextual fear memory in words ([11]; listed as Tadalafil): did not improve associative learning
- effect on spatial working memory (RAWM) in words [12]: does not improve spatial working memory
- effect on spatial working memory (RAWM) in words ([12]; listed as Tadalafil): did not improve
- ability to cross the BBB in words [13]: unlikely to cross it; also recorded: does not cross it
- ability to cross the BBB in words ([13]; listed as Tadalafil): does not cross it
